Consider 31 compounds from patent US20240109930A1, “TRIAZOLYL-METHYL SUBSTITUTED ALPHA-D-GALACTOPYRANOSIDE DERIVATIVES” (Idorsia Pharmaceuticals Ltd, priority 2021, published 2024).

pIC50: −log10 of the molar value.

For one assay, the target named is human Gal-1 (hGal-1) (Homo sapiens, UniProt P09382, C131S/C17S/C43S/C61S/C89S). Description: Competitive binding assay: biotinylated hGal-1 binding to microplate-adsorbed asialofetuin (ASF). Conditions: IC50 values from several measurements given as geomean. The method in brief:
(§1)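 Biotinylated hGal-3 or hGal-1 (preferably cysteine-free Cys→Ser mutant), 300–1000 ng/mL, competes with compound for ASF-coated wells for 3 h at 4 °C. Bound lectin detected with streptavidin-peroxidase (80 ng/mL, 1 h, 4 °C) and ABTS by absorbance; IC50 reported as geomean of several runs.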

A further assay addresses human Gal-3 (hGal-3) (Homo sapiens (Human), UniProt P17931). Description: Competitive binding assay: biotinylated hGal-3 binding to microplate-adsorbed asialofetuin (ASF). Conditions: IC50 values from several measurements given as geomean. The method in brief:
as §1

As usually defined, the pIC50 is the negative decadic logarithm of the IC50, by convention in mol/L. A low value points to a high IC50.

Sequence of human Gal-3 (hGal-3) (P17931 whole entry): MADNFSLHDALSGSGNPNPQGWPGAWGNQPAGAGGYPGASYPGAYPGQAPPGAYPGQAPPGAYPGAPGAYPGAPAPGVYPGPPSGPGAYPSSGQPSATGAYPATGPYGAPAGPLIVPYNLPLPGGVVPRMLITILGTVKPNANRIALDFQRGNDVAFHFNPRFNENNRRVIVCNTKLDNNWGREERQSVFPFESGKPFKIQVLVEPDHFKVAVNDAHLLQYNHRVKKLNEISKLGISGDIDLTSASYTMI

For the compound `CO[C@@H]1[C@@H](n2cc(-c3ccc(Br)c(F)c3F)nn2)[C@@H](O)[C@@H](CO)O[C@@H]1Cc1cn(C2CCC2(F)F)nn1` (stereo partly drawn) [Example 4.1.63.AB, (2R,3R,4S,5R,6R)-4-(4-(4-bromo-2,3-difluorophenyl)-1H-1,2,3-triazol-1-yl)-6-((1-(2,2-difluorocyclobutyl)-1H-1,2,3-triazol-4-yl)methyl)-2-(hydroxymethyl)-5-methoxytetrahydro-2H-pyran-3-ol], the pIC50 on human Gal-1 (hGal-1) is 5.50; at human Gal-3 (hGal-3) it was 7.15.
Consider `CO[C@@H]1[C@@H](n2cc(-c3ccc(Cl)c(F)c3F)nn2)[C@@H](O)[C@@H](CO)O[C@@H]1Cc1cn([C@]2(C)C[C@@H](O)C2)nn1` [Ex 2.1.27.], for which the negative-log IC50 (pIC50) was 6.15 on human Gal-1 (hGal-1) and 7.52 on human Gal-3 (hGal-3).
For the compound `COC1=C(N2CC(c3ccc(Br)c(F)c3F)NN2)C(O)=C(CO)O[C@@H]1Cn1cc(C23CCC(NC(=O)OC(C)(C)C)(CC2)CC3)nn1` (some centres unmarked) [Ex 4.2.37.], the pIC50 on human Gal-1 (hGal-1) was 4.95; on human Gal-3 (hGal-3) it was 7.30.
The matching figures for `CO[C@@H]1[C@@H](n2cc(-c3ccc(Cl)c(F)c3F)nn2)[C@@H](O)[C@@H](CO)O[C@@H]1Cc1cn([C@H]2CCOC[C@H]2F)nn1` [Example 2.1.66.B, (2R,3R,4S,5R,6R)-4-(4-(4-chloro-2,3-difluorophenyl)-1H-1,2,3-triazol-1-yl)-6-((1-((3S,4S)-3-fluorotetrahydro-2H-pyran-4-yl)-1H-1,2,3-triazol-4-yl)methyl)-2-(hydroxymethyl)-5-methoxytetrahydro-2H-pyran-3-ol]: 5.54 and 7.40.
In the case of `CO[C@@H]1[C@@H](n2cc(-c3ccc(Cl)c(F)c3F)nn2)[C@@H](O)[C@@H](CO)O[C@@H]1Cc1cn(C2(C(F)(F)F)CCCC2)nn1` [Ex 2.1.67.], the pIC50 at human Gal-1 (hGal-1) was 5.99; on human Gal-3 (hGal-3), 7.40.
The matching figures for `CO[C@@H]1[C@@H](n2cc(-c3ccc(Br)c(F)c3F)nn2)[C@@H](O)[C@@H](CO)O[C@@H]1Cc1cn(C23CC(C2)C3)nn1` [Ex 4.1.12.]: 5.41 and 7.40.
For the compound `CO[C@@H]1[C@@H](n2cc(-c3ccc(C#N)c(F)c3F)nn2)[C@@H](O)[C@@H](CO)O[C@@H]1Cc1cn(C2(C)COC2)nn1` [Ex 5.1.6.], the pIC50 at human Gal-1 (hGal-1) was 5.40; at human Gal-3 (hGal-3), 7.15.
For `CO[C@@H]1[C@@H](n2cc(-c3ccc(C)c(F)c3F)nn2)[C@@H](O)[C@@H](CO)O[C@@H]1Cc1cn([C@]2(C)C[C@H](O)C2)nn1` [Ex 1.1.19.], in that order: 6.17 and 7.70.
The matching figures for `CO[C@@H]1[C@@H](n2cc(-c3ccc(Cl)c(F)c3F)nn2)[C@@H](O)[C@@H](CO)O[C@@H]1Cc1cn(C2(CCO)COC2)nn1` [Ex 2.1.22.]: 6.17 and 7.30.
As to `CO[C@@H]1[C@@H](n2cc(-c3ccc(F)c(F)c3F)nn2)[C@@H](O)[C@@H](CO)O[C@@H]1Cc1cn(C2CC3(CC3)C2)nn1` [Ex 3.1.26.], the pIC50 was 6.12 at human Gal-1 (hGal-1) and 7.15 at human Gal-3 (hGal-3).
`CO[C@@H]1[C@@H](n2cc(-c3ccc(Cl)c(F)c3F)nn2)[C@@H](O)[C@@H](CO)O[C@@H]1Cc1cn(C(C)(C)C(F)F)nn1` [Ex 2.1.28.]: the pIC50 at human Gal-1 (hGal-1) was 6.11; at human Gal-3 (hGal-3), 7.40.
For `CO[C@@H]1[C@@H](n2cc(-c3ccc(Cl)c(F)c3F)nn2)[C@@H](O)[C@@H](CO)O[C@@H]1Cc1cn(C2(CO)CC2)nn1` [Ex 2.1.4.], the pIC50 on human Gal-1 (hGal-1) is 5.52; on human Gal-3 (hGal-3) it was 7.40.
For `CO[C@@H]1[C@@H](n2cc(-c3ccc(Cl)c(F)c3F)nn2)[C@@H](O)[C@@H](CO)O[C@@H]1Cn1cc(C2CCCC2)nn1` [Ex 2.2.32.], the values for the pIC50 at human Gal-1 (hGal-1) and at human Gal-3 (hGal-3) were 5.42 and 7.30, respectively.
On to `CO[C@@H]1[C@@H](n2cc(-c3ccc(Cl)c(F)c3F)nn2)[C@@H](O)[C@@H](CO)O[C@@H]1Cc1cn(C2CCCCC2(F)F)nn1` (single isomer, unassigned) [Example 2.1.80.A], for which the pIC50 at human Gal-1 (hGal-1) is 5.99; on human Gal-3 (hGal-3) it was 7.70.
For `CO[C@@H]1[C@@H](n2cc(-c3ccc(Br)c(F)c3F)nn2)[C@@H](O)[C@@H](CO)O[C@@H]1Cn1cc(C23CCC(N)(CC2)CC3)nn1` [Ex 4.2.39.], in that order: 5.66 and 7.22.
For `CO[C@@H]1[C@@H](n2cc(-c3ccc(F)c(F)c3F)nn2)[C@@H](O)[C@@H](CO)O[C@@H]1Cc1cn(C2(C(F)F)COC2)nn1` [Ex 3.1.53.], the values for the pIC50 at human Gal-1 (hGal-1) and on human Gal-3 (hGal-3) were 6.89 and 7.70, respectively.
Consider `CO[C@@H]1[C@@H](n2cc(-c3ccc(Cl)c(F)c3F)nn2)[C@@H](O)[C@@H](CO)O[C@@H]1Cc1cn(C2(CF)COC2)nn1` [Ex 2.1.52., (2R,3R,4S,5R,6R)-4-(4-(4-chloro-2,3-difluorophenyl)-1H-1,2,3-triazol-1-yl)-6-((1-(3-(fluoromethyl)oxetan-3-yl)-1H-1,2,3-triazol-4-yl)methyl)-2-(hydroxymethyl)-5-methoxytetrahydro-2H-pyran-3-ol [1-(1,2,3-tri-deoxy-2-methoxy-3-[4-(4-chloro-2,3-difluorophenyl)-1H-1,2,3-triazol-1-yl]-α-D-galacto-pyranose)-1-(1-(3-fluoromethyl-3-oxetanyl)-1H-triazol-4-yl)-methane]], for which the pIC50 is 6.19 at human Gal-1 (hGal-1) and 7.70 at human Gal-3 (hGal-3).
For `CO[C@@H]1[C@@H](n2cc(-c3ccc(Cl)c(F)c3F)nn2)[C@@H](O)[C@@H](CO)O[C@@H]1Cc1cn(C23CCOC(C)(C2)C3)nn1` [Ex 2.1.62., (2R,3R,4S,5R,6R)-4-(4-(4-chloro-2,3-difluorophenyl)-1H-1,2,3-triazol-1-yl)-2-(hydroxymethyl)-5-methoxy-6-((1-(1-methyl-2-oxabicyclo[3.1.1]heptan-5-yl)-1H-1,2,3-triazol-4-yl)methyl)tetrahydro-2H-pyran-3-ol], the pIC50 at human Gal-1 (hGal-1) was 5.92; at human Gal-3 (hGal-3), 7.52.
The matching figures for `CO[C@@H]1[C@@H](n2cc(-c3ccc(Cl)c(F)c3F)nn2)[C@@H](O)[C@@H](CO)O[C@@H]1Cc1cn([C@]2(C)C[C@H](F)C2)nn1` [Ex 2.1.47.B]: 5.92 and 7.52.
For `CO[C@@H]1[C@@H](n2cc(-c3ccc(Cl)c(F)c3F)nn2)[C@@H](O)[C@@H](CO)O[C@@H]1Cn1cc(C2CC(F)(F)C2)nn1` [Ex 2.2.83.], in that order: 5.06 and 6.80.
For `CO[C@@H]1[C@@H](n2cc(-c3ccc(F)c(F)c3F)nn2)[C@@H](O)[C@@H](CO)O[C@@H]1Cc1cn(C2(CCO)COC2)nn1` [Ex 3.1.22.], the pIC50 at human Gal-1 (hGal-1) was 6.38; on human Gal-3 (hGal-3), 7.22.
On to `CO[C@@H]1[C@@H](n2cc(-c3ccc(Br)c(F)c3F)nn2)[C@@H](O)[C@@H](CO)O[C@@H]1Cn1cc(C2(CO)CC2)nn1` [Ex 4.2.4.], for which the pIC50 is 5.33 on human Gal-1 (hGal-1) and 7.15 on human Gal-3 (hGal-3).
`CO[C@@H]1[C@@H](n2cc(-c3ccc(C)c(F)c3F)nn2)[C@@H](O)[C@@H](CO)O[C@@H]1Cc1cn(C23CC(C)(C2)C3)nn1` [Ex 1.1.14.]: the pIC50 at human Gal-1 (hGal-1) was 5.58; at human Gal-3 (hGal-3), 7.40.
The matching figures for `CO[C@@H]1[C@@H](n2cc(-c3ccc(Br)c(F)c3F)nn2)[C@@H](O)[C@@H](CO)O[C@@H]1Cc1cn(C2(CCO)COC2)nn1` [Ex 4.1.22.]: 5.94 and 7.15.
For `CO[C@@H]1[C@@H](n2cc(-c3ccc(C)c(F)c3F)nn2)[C@@H](O)[C@@H](CO)O[C@@H]1Cn1cc(C2(O)CCC2)nn1` [Ex 1.2.31.], the pIC50 at human Gal-1 (hGal-1) was 5.42; on human Gal-3 (hGal-3), 7.22.
In the case of `CO[C@@H]1[C@@H](n2cc(-c3ccc(F)c(F)c3F)nn2)[C@@H](O)[C@@H](CO)O[C@@H]1Cc1cn([C@]2(C)C[C@H](O)C2)nn1` [Ex 3.1.19.], the pIC50 at human Gal-1 (hGal-1) is 6.59; on human Gal-3 (hGal-3), 7.22.
On to `CO[C@@H]1[C@@H](n2cc(-c3ccc(Cl)c(F)c3F)nn2)[C@@H](O)[C@@H](CO)O[C@@H]1Cc1cn(C2(C(F)F)COC2)nn1` [Ex 2.1.53., (2R,3R,4S,5R,6R)-4-(4-(4-chloro-2,3-difluorophenyl)-1H-1,2,3-triazol-1-yl)-6-((1-(3-(difluoromethyl)oxetan-3-yl)-1H-1,2,3-triazol-4-yl)methyl)-2-(hydroxymethyl)-5-methoxytetrahydro-2H-pyran-3-ol [1-(1,2,3-tri-deoxy-2-methoxy-3-[4-(4-chloro-2,3-difluorophenyl)-1H-1,2,3-triazol-1-yl]-α-D-galacto-pyranose)-1-(1-(3-difluoromethyl-3-oxetanyl)-1H-triazol-4-yl)-methane]], for which the figures for the pIC50 on human Gal-1 (hGal-1) and at human Gal-3 (hGal-3) were 6.38 and 7.70, respectively.
In the case of `CO[C@@H]1[C@@H](n2cc(-c3ccc(C)c(F)c3F)nn2)[C@@H](O)[C@@H](CO)O[C@@H]1Cn1cc(C2(O)CCCC2)nn1` [Ex 1.2.33.], the values for the pIC50 on human Gal-1 (hGal-1) and at human Gal-3 (hGal-3) were 5.24 and 6.96, respectively.
The matching figures for `CO[C@@H]1[C@@H](n2cc(-c3ccc(Cl)c(F)c3F)nn2)[C@@H](O)[C@@H](CO)O[C@@H]1Cn1cc(C2(C)CC2)nn1` [Ex 2.2.23.]: 5.77 and 7.22.
For `CO[C@@H]1[C@@H](n2cc(-c3ccc(Cl)c(F)c3F)nn2)[C@@H](O)[C@@H](CO)O[C@@H]1Cn1cc(C2(O)CC2)nn1` [Ex 2.2.36.], in that order: 5.50 and 7.05.
Turning to `CO[C@@H]1[C@@H](n2cc(-c3ccc(C)c(F)c3F)nn2)[C@@H](O)[C@@H](CO)O[C@@H]1Cc1cn([C@]2(C)C[C@@H](O)C2)nn1` [Ex 1.1.27.], the pIC50 was 5.85 at human Gal-1 (hGal-1) and 7.52 on human Gal-3 (hGal-3).
